Source: US20220218852A1, “NOVEL RADIOLABELLED CXCR4-TARGETING COMPOUNDS FOR DIAGNOSIS AND THERAPY” (PROVINCIAL HEALTH SERVICES AUTHORITY, priority 2019, published 2022)
Where two headings read alike, the source gives them in different places. Positions of bridges follow the written chain, without caps; N, C: chain ends. Non-standard residues stand in square brackets, D forms with d. Residues, ends and D or L forms follow the SMILES beside them. Groups on a side chain read outwards from the residue. *: point of attachment. DOTA = O=C(O)CN1CCN(CC(=O)O)CCN(CC(=O)*)CCN(CC(=O)O)CC1; 2Nal = N[C@@H](Cc1ccc2ccccc2c1)C(=O)O; Lys(iPr) = CC(C)NCCCC[C@H](N)C(=O)O

Experiments:
Type in all cases: in vivo
[1] = test system: Z138 mantle cell lymphoma xenografts; experiment: Biodistribution in Z138 tumor-bearing mice; details: Z138
Method: (§1) For Daudi, Z138, GRANTA519 and Jeko1 xenografts, male NOD.Cg-Rag1^tm1MomII2rg^tm1Wjl/SzJ (NRG) mice were subcutaneously inoculated on the left flank with 5×10^6 cells (100 μL; 1:1 ratio of PBS/Matrigel) and tumors were grown to a size of 200-500 mm^3. For PC-3 xenografts, male NOD.Cg-Rag1^tm1MomII2rg^tm1Wjl/SzJ (NRG) mice were subcutaneously inoculated on the left flank with 5×10^6 PC-3 cells (100 μL; 1:1 ratio of PBS/Matrigel) and tumors were grown to a size of 200-400 mm^3.
(§2) The mice were euthanized via CO2 inhalation while anesthetized with isoflurane. Tissues were harvested, washed in PBS, blotted dry, weighed, and measured on a Hidex AMG Automatic Gamma Counter.

[2] = Biodistribution in Z138 tumor-bearing mice; details: male, NOD.Cg-Rag1^tm1MomII2rg^tm1Wjl/SzJ (NRG), mouse, iv, total radioactivity, Z138
Method: as §1, §2

[3] = Biodistribution in Daudi tumor-bearing mice; details: male, NOD.Cg-Rag1^tm1MomII2rg^tm1Wjl/SzJ (NRG), mouse, iv, total radioactivity, Daudi
Method: as §1, §2

[4] = test system: Daudi Burkitt's lymphoma xenografts; experiment: Biodistribution in Daudi tumor-bearing mice; details: Daudi
Method: as §1, §2

[5] = 1 h blocked (7.5 μg LY2510924 i.p.)
[6] = blood, 1 h, read-out: Biodistribution Blood
[7] = blood, 1 h blocked (7.5 μg LY2510924 i.p.), read-out: Biodistribution Blood
[8] = fat, 1 h, read-out: Biodistribution Fat
[9] = fat, 1 h blocked (7.5 μg LY2510924 i.p.), read-out: Biodistribution Fat

CC(C)NCCCC[C@@H]1NC(=O)[C@H](Cc2ccc(O)cc2)NC(=O)[C@H](Cc2ccccc2)NC(=O)CC[C@H](C(=O)N[C@@H](CCCCNC(C)C)C(=O)N[C@@H](CCCCNC(=O)[C@H](CCC(=O)O)NC(=O)[C@H](CCC(=O)O)NC(=O)[C@H](CCC(=O)O)NC(=O)CN2CCN(CC(=O)O)CCN(CC(=O)O)CCN(CC(=O)O)CC2)C(N)=O)NC(=O)CNC(=O)[C@H](Cc2ccc3ccccc3c2)NC(=O)[C@@H](CCCNC(=N)N)NC1=O [[^68Ga]Ga-BL02, metal not drawn] (FY[Lys(iPr)][dR][2Nal]G[dE][Lys(iPr)]K([Glu-Glu-Glu-DOTA])-NH2; lactam N-7)
Ratio Tumor: Blood ([1]; 1 h): 43.12
Ratio Tumor: Bone ([1]; 1 h): 163.06
Ratio Tumor: Liver ([1]; 1 h): 26.89
Ratio Tumor: Lung ([1]; 1 h): 26.39
Ratio Tumor: Muscle ([1]; 1 h): 240.96
Ratio Tumor: Spleen ([1]; 1 h): 39.22
Ratio Tumor: Blood [1, 5]: 3.94
Ratio Tumor: Bone [1, 5]: 19.08
Ratio Tumor: Liver [1, 5]: 5.23
Ratio Tumor: Lung [1, 5]: 3.65
Ratio Tumor: Muscle [1, 5]: 21.59
Ratio Tumor: Spleen [1, 5]: 7.40
tissue uptake at 1 h ([2]; Z138 tumor, 1 h, read-out: Biodistribution Z138 (tumor)): 12.9 %ID/g
tissue uptake at 1 h ([2]; Z138 tumor, 1 h blocked (7.5 μg LY2510924 i.p.), read-out: Biodistribution Z138 (tumor)): 2.86 %ID/g
tissue uptake at 1 h ([2]; adrenals, 1 h, read-out: Biodistribution Adrenals): 0.14 %ID/g
tissue uptake at 1 h ([2]; adrenals, 1 h blocked (7.5 μg LY2510924 i.p.), read-out: Biodistribution Adrenals): 0.59 %ID/g
tissue uptake at 1 h [2, 6]: 0.3 %ID/g
tissue uptake at 1 h [2, 7]: 0.83 %ID/g
tissue uptake at 1 h ([2]; bone, 1 h, read-out: Biodistribution Bone): 0.08 %ID/g
tissue uptake at 1 h ([2]; bone, 1 h blocked (7.5 μg LY2510924 i.p.), read-out: Biodistribution Bone): 0.2 %ID/g
tissue uptake at 1 h ([2]; brain, 1 h, read-out: Biodistribution Brain): 0.01 %ID/g
tissue uptake at 1 h ([2]; brain, 1 h blocked (7.5 μg LY2510924 i.p.), read-out: Biodistribution Brain): 0.02 %ID/g
tissue uptake at 1 h [2, 8]: 0.04 %ID/g
tissue uptake at 1 h [2, 9]: 0.14 %ID/g
tissue uptake at 1 h ([2]; heart, 1 h, read-out: Biodistribution Heart): 0.11 %ID/g
tissue uptake at 1 h ([2]; heart, 1 h blocked (7.5 μg LY2510924 i.p.), read-out: Biodistribution Heart): 0.24 %ID/g
tissue uptake at 1 h ([2]; intestine, 1 h, read-out: Biodistribution Intestine): 0.19 %ID/g
tissue uptake at 1 h ([2]; intestine, 1 h blocked (7.5 μg LY2510924 i.p.), read-out: Biodistribution Intestine): 0.61 %ID/g
tissue uptake at 1 h ([2]; kidney, 1 h, read-out: Biodistribution Kidney): 3.48 %ID/g
tissue uptake at 1 h ([2]; kidney, 1 h blocked (7.5 μg LY2510924 i.p.), read-out: Biodistribution Kidney): 7.86 %ID/g
tissue uptake at 1 h ([2]; liver, 1 h, read-out: Biodistribution Liver): 0.48 %ID/g
tissue uptake at 1 h ([2]; liver, 1 h blocked (7.5 μg LY2510924 i.p.), read-out: Biodistribution Liver): 0.55 %ID/g
tissue uptake at 1 h ([2]; lung, 1 h, read-out: Biodistribution Lung): 0.5 %ID/g
tissue uptake at 1 h ([2]; lung, 1 h blocked (7.5 μg LY2510924 i.p.), read-out: Biodistribution Lung): 0.85 %ID/g
tissue uptake at 1 h ([2]; muscle, 1 h, read-out: Biodistribution Muscle): 0.05 %ID/g
tissue uptake at 1 h ([2]; muscle, 1 h blocked (7.5 μg LY2510924 i.p.), read-out: Biodistribution Muscle): 0.15 %ID/g
tissue uptake at 1 h ([2]; pancreas, 1 h, read-out: Biodistribution Pancreas): 0.08 %ID/g
tissue uptake at 1 h ([2]; pancreas, 1 h blocked (7.5 μg LY2510924 i.p.), read-out: Biodistribution Pancreas): 0.21 %ID/g
tissue uptake at 1 h ([2]; spleen, 1 h, read-out: Biodistribution Spleen): 0.33 %ID/g
tissue uptake at 1 h ([2]; spleen, 1 h blocked (7.5 μg LY2510924 i.p.), read-out: Biodistribution Spleen): 0.43 %ID/g
tissue uptake at 1 h ([2]; stomach, 1 h, read-out: Biodistribution Stomach): 0.07 %ID/g
tissue uptake at 1 h ([2]; stomach, 1 h blocked (7.5 μg LY2510924 i.p.), read-out: Biodistribution Stomach): 0.16 %ID/g
tissue uptake at 1 h ([2]; testes, 1 h, read-out: Biodistribution Testes): 0.11 %ID/g
tissue uptake at 1 h ([2]; testes, 1 h blocked (7.5 μg LY2510924 i.p.), read-out: Biodistribution Testes): 0.26 %ID/g
tissue uptake at 1 h [3, 6]: 0.31 %ID/g
tissue uptake at 1 h [3, 7]: 0.5 %ID/g
tissue uptake at 2 h ([3]; blood, read-out: Biodistribution Blood): 0.08 %ID/g
tissue uptake at 1 h [3, 8]: 0.05 %ID/g
tissue uptake at 1 h [3, 9]: 0.07 %ID/g
tissue uptake at 2 h ([3]; fat, read-out: Biodistribution Fat): 0.02 %ID/g
tissue uptake at 1 h ([3]; tumor, 1 h blocked (7.5 μg LY2510924 i.p.), read-out: Biodistribution Daudi (tumor)): 0.8 %ID/g
tissue uptake at 2 h ([3]; tumor, read-out: Biodistribution Daudi (tumor)): 7.78 %ID/g
Biodistribution Adrenals ([4]; 1 h): 0.36 % ID/g
Biodistribution Bone ([4]; 1 h): 0.19 % ID/g
Biodistribution Brain ([4]; 1 h): 0.02 % ID/g
Biodistribution Daudi (tumor) ([4]; 1 h): 8.52 % ID/g
Biodistribution Heart ([4]; 1 h): 0.13 % ID/g
Biodistribution Intestine ([4]; 1 h): 0.22 % ID/g
Biodistribution Kidney ([4]; 1 h): 4.18 % ID/g
Biodistribution Liver ([4]; 1 h): 0.59 % ID/g
Biodistribution Lung ([4]; 1 h): 0.48 % ID/g
Biodistribution Muscle ([4]; 1 h): 0.10 % ID/g
Biodistribution Pancreas ([4]; 1 h): 0.18 % ID/g
Biodistribution Spleen ([4]; 1 h): 0.53 % ID/g
Biodistribution Stomach ([4]; 1 h): 0.07 % ID/g
Biodistribution Testes ([4]; 1 h): 0.11 % ID/g
Ratio Tumor: Blood ([4]; 1 h): 30.57
Ratio Tumor: Bone ([4]; 1 h): 48.04
Ratio Tumor: Liver ([4]; 1 h): 14.30
Ratio Tumor: Lung ([4]; 1 h): 18.07
Ratio Tumor: Muscle ([4]; 1 h): 80.77
Ratio Tumor: Spleen ([4]; 1 h): 17.18
Biodistribution Adrenals [4, 5]: 0.32 % ID/g
Biodistribution Bone [4, 5]: 0.20 % ID/g
Biodistribution Brain [4, 5]: 0.02 % ID/g
Biodistribution Heart [4, 5]: 0.14 % ID/g
Biodistribution Intestine [4, 5]: 0.31 % ID/g
Biodistribution Kidney [4, 5]: 4.63 % ID/g
Biodistribution Liver [4, 5]: 0.55 % ID/g
Biodistribution Lung [4, 5]: 0.58 % ID/g
Biodistribution Muscle [4, 5]: 0.09 % ID/g
Biodistribution Pancreas [4, 5]: 0.12 % ID/g
Biodistribution Spleen [4, 5]: 0.23 % ID/g
Biodistribution Stomach [4, 5]: 0.07 % ID/g
Biodistribution Testes [4, 5]: 0.15 % ID/g
Ratio Tumor: Blood [4, 5]: 1.71
Ratio Tumor: Bone [4, 5]: 4.44
Ratio Tumor: Liver [4, 5]: 1.47
Ratio Tumor: Lung [4, 5]: 1.43
Ratio Tumor: Muscle [4, 5]: 9.23
Ratio Tumor: Spleen [4, 5]: 3.57
Biodistribution Adrenals ([4]; 2 h): 0.21 % ID/g
Biodistribution Bone ([4]; 2 h): 0.09 % ID/g
Biodistribution Brain ([4]; 2 h): 0.01 % ID/g
Biodistribution Heart ([4]; 2 h): 0.05 % ID/g
Biodistribution Intestine ([4]; 2 h): 0.12 % ID/g
Biodistribution Kidney ([4]; 2 h): 3.40 % ID/g
Biodistribution Liver ([4]; 2 h): 0.54 % ID/g
Biodistribution Lung ([4]; 2 h): 0.27 % ID/g
Biodistribution Muscle ([4]; 2 h): 0.04 % ID/g
Biodistribution Pancreas ([4]; 2 h): 0.05 % ID/g
Biodistribution Spleen ([4]; 2 h): 0.24 % ID/g
Biodistribution Stomach ([4]; 2 h): 0.07 % ID/g
Biodistribution Testes ([4]; 2 h): 0.05 % ID/g
Ratio Tumor: Blood ([4]; 2 h): 114.6
Ratio Tumor: Bone ([4]; 2 h): 87.81
Ratio Tumor: Liver ([4]; 2 h): 14.47
Ratio Tumor: Lung ([4]; 2 h): 31.68
Ratio Tumor: Muscle ([4]; 2 h): 216.0
Ratio Tumor: Spleen ([4]; 2 h): 36.06
